Laboratory results: patent US10161931B2, “Methods for determining susceptibility to coreceptor inhibitors” (Monogram Biosciences, Inc., priority 2006, dated 2018)

What was measured:
dual-R clone 21d = assay: Entry inhibitor susceptibility, pseudotyped HIV-1 entry (luciferase) assay, env clone 21d (c21); type: cell-based; conditions: dual-R clone 21d compared to R5-, X4- and dual-X tropic clones
Method: (§1) Susceptibility assays for HIV-1 entry inhibitors were performed using packaging host cells consisting of the human embryonic kidney cell line 293 (Cell Culture Facility, UC San Francisco, SF, Calif.) and target host cells consisting of a human osteosarcoma (HOS) cell line expressing CD4 (HT4) plus CCR5, and CXCR4, astrocytoma (U-87) cell lines expressing either CD4 and CCR5 or CD4 and CXCR4, or glioma (NP2) cell lines expressing CD4 and either CCR5 or CXCR4.
(§2) Drug susceptibility and tropism testing was performed using pHIVenv and pHIVluc or pHIVlucΔU3. […] After infection ([…]) the target cells were lysed and luciferase activity was measured. […] The amount of luciferase activity detected in the infected cells was used as a direct measure of “infectivity” (FIGS. 1 and 2). […] Drug susceptibility was assessed by comparing the infectivity in the absence of drug to infectivity in the presence of drug. Relative drug susceptibility can be quantified by comparing the susceptibility of the “test” virus to the susceptibility of a well-characterized reference virus (wild type) derived from a molecular clone of HIV-1, for example NL4-3 or PIXB2.
(§3) The ability of a virus to enter a cell was assessed by comparing the amount of luciferase activity produced in each cell type, e.g., cells expressing CD4 and either CCR5 or CXCR4, both in the presence and absence of drug. […]

dual-R clone 86d = assay: Entry inhibitor susceptibility, pseudotyped HIV-1 entry (luciferase) assay, env clone 86d (c86); type: cell-based
Method: as §1, §2, §3

[1] = system: Isogenic viruses containing one or two specific mutations in the gp41 transmembrane envelope protein; assay: T-20 susceptibility of isogenic viruses with gp41 mutations (FIG. 4B); type: cell-based, HIV; conditions: cells expressing CD4, CCR5 and CXCR4, gp41 mutants vs wild type
Method: Cells expressing CD4, CCR5 and CXCR4 were infected in the absence of T-20 and over a wide range of T-20 concentrations (x-axis log 10 scale). The percent inhibition of viral replication (y-axis) was determined by comparing the amount of luciferase produced in infected cells in the presence of T-20 to the amount of luciferase produced in the absence of T-20. Isogenic viruses containing one or two specific mutations in the gp41 transmembrane envelope protein were tested (highlighted in red in the figure legend). Drug susceptibility is quantified by determining the concentration of T-20 required to inhibit 50% of viral replication (IC50, shown as vertical dashed lines). […]
as §2

X4-tropic clone 42x = assay: Entry inhibitor susceptibility, pseudotyped HIV-1 entry (luciferase) assay, env clone 42x (c42); type: cell-based
Method: as §1, §2, §3

dual-X clone 88D = assay: Entry inhibitor susceptibility, pseudotyped HIV-1 entry (luciferase) assay, env clone 88D (c88); type: cell-based; conditions: Human immunodeficiency virus 1; clone c88, tropism dual; read-out: Sensitivity of Entry Inhibitors
Method: as §1, §2, §3

dual-X clone 11D = assay: Entry inhibitor susceptibility, pseudotyped HIV-1 entry (luciferase) assay, env clone 11D (c11); type: cell-based; conditions: Human immunodeficiency virus 1; clone c11, tropism dual; read-out: Sensitivity of Entry Inhibitors
Method: as §1, §2, §3

| Compound | fold-reduced susceptibility (dual-R clone 21d) | fold-reduced susceptibility (dual-R clone 86d; dual-R clone 86d compared to R5-, X4- and dual-X tropic clones) | susceptibility to fusion inhibitor (in words) [1] | IC50 (X4-tropic clone 42x; Human immunodeficiency virus 1, clone c42, tropism X4, read-out: Sensitivity of Entry Inhibitors) [nM] | sensitivity compared to other clones (in words) (X4-tropic clone 42x; X4 clone 42d (so in the source)) | IC50 (dual-X clone 88D) [nM] | IC50 (dual-X clone 11D) [nM] | IC50 (dual-R clone 86d; Human immunodeficiency virus 1, clone c86, tropism dual-R, read-out: Sensitivity of Entry Inhibitors) [nM] |
| --- | --- | --- | --- | --- | --- | --- | --- | --- |
| enfuvirtide | 4-5 fold | 4-5 fold | reduced susceptibility | – | – | – | – | – |
| c1cc(CN2CCCNCCNCCCNCC2)ccc1CN1CCCNCCNCCCNCC1 [AMD] | – | – | – | 45.8 | subtle reduction in sensitivity | 8.7 | 3.4 | 5.6 |
